Data from patent publication US9181214B2 (RHIZEN PHARMACEUTICALS SA, priority 2011, dated 2015).

What was measured:
human GPR119 = target: T1, human GPR119 (Homo sapiens, UniProt Q8TDV5); assay: In vitro cyclic AMP assay (Cisbio HTRF) in HEK293 cells transfected with human GPR119; format: cell-based; conditions: cAMP; for activation at 10 µM: 1 h, % Induction @ 10 μM; for EC50: Emax varies between 65 to 80%
T1 construct: expressed in transfected cells; host or cells: HEK293 (transient transfection, Lipofectamine 2000)
T1 sequence (Q8TDV5 1-335): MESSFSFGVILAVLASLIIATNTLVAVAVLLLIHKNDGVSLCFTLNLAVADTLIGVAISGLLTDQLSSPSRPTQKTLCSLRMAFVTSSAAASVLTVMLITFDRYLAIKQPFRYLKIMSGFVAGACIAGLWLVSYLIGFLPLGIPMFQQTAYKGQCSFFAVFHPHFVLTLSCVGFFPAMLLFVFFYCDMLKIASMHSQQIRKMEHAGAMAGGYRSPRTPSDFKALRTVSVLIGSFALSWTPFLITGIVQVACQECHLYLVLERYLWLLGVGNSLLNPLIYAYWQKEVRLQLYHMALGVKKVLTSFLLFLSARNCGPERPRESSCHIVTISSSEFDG
Method: A. In Vitro Cyclic AMP Assay:
cAMP measurements were done using a Cisbio dynamic 2 HTRF kit (Cisbio, Bedford, Mass.) according to the manufacturer's protocol. Briefly, HEK293 cells (0.2×10^6/well) were plated in a 24 well plate and incubated overnight at 37° C. Cells were transfected with either empty vector DNA or human GPR119 expression plasmid DNA using Lipofectamine 2000 (Invitrogen). After 24 h, transfected cells were harvested, counted and plated at 1000 cells/5 ul in a black 384 welled small volume plate. Cells were treated with desired concentrations of compounds and incubated for 60 min at room temperature. Lysis buffer containing cAMP-d2 and cryptate conjugate were added and incubated for 1 h. HRTF ratio was measured on a microplate reader (BMG Labtech., Germany) at an excitation wavelength of 337 nm and emission wavelengths of 665 and 620 nm with an integration time of 400 μsec. Data were analyzed using Graphpad Prism (Graphpad software; San Diego Calif.) for EC50 determination.
The results are as given in Table I as % Induction@ 10 μM, Table II as % Induction@ 10 μM and EC 50 in nM

melting point | activation at 10 µM (human GPR119; Table I) | activation at 10 µM (human GPR119; Table II) | Compound | further results
149 to 153 °C | 10.6% | – | CC(C)OC(=O)N1CCC(c2nc3ccc(-c4ccc(C(F)F)cc4)cc3o2)CC1 [EXAMPLE-33, Isopropyl 4-{6-[4-(difluoromethyl)phenyl]benzo[d]oxazol-2-yl}piperidine-1-carboxylate] | –
239 to 242 °C | – | – | CC(C)OC(=O)N1CCC(c2nc3cc(-c4ccc(C(=O)O)cn4)ccc3o2)CC1 [EXAMPLE-34, 6-{2-[1-(isopropoxycarbonyl)piperidin-4-yl]benzo[d]oxazol-5-yl}nicotinic acid] | –
209 to 212 °C | 0.28% | – | CS(=O)(=O)N1CCC(c2nc3cc(-c4ccc(-n5cnnn5)cc4F)ccc3o2)CC1 [EXAMPLE-35, 5-[2-fluoro-4-(1H-tetrazol-1-yl)phenyl]-2-[1-(methylsulfonyl)piperidin-4-yl]benzo[d]oxazole] | –
227 to 230 °C | 4.83% | – | CC(C)OC(=O)N1CCC(c2nc3cc(-c4ccc(C(N)=O)cn4)ccc3o2)CC1 [EXAMPLE-36, Isopropyl 4-[5-(5-carbamoylpyridin-2-yl)benzo[d]oxazol-2-yl]piperidine-1-carboxylate] | –
194 to 197 °C | 6.56% | – | CC(C)OC(=O)N1CCC(c2nc3cc(-c4ccc(C(N)=O)cc4F)ccc3o2)CC1 [EXAMPLE-37, Isopropyl 4-[5-(4-carbamoyl-2-fluorophenyl)benzo[d]oxazol-2-yl]piperidine-1-carboxylate] | –
178 to 182 °C | 16.6% | – | CC(C)OC(=O)N1CCC(c2nc3cc(-c4ccc(C(N)=O)cc4Cl)ccc3o2)CC1 [EXAMPLE-38, Isopropyl 4-[5-(4-carbamoyl-2-chlorophenyl)benzo[d]oxazol-2-yl]piperidine-1-carboxylate] | –
186 to 190 °C | 27.5% | – | CC(C)CC(=O)N1CCC(c2nc3cc(-c4ccc(C(N)=O)c(F)c4)ccc3o2)CC1 [EXAMPLE-39, 2-Fluoro-4-{2-[1-(3-methylbutanoyl)piperidin-4-yl]benzo[d]oxazol-5-yl}benzamide] | –
168 to 172 °C | 21.9% | – | CC(C)CC(=O)N1CCC(c2nc3cc(-c4ccc(-n5cnnn5)cc4F)ccc3o2)CC1 [EXAMPLE-40, 1-{4-[5-(2-fluoro-4-(1H-tetrazol-1-yl)phenyl]benzo[d]oxazol-2-yl]piperidin-1-yl}-3-methylbutan-1-one] | –
148 to 152 °C | – | – | COCCN1CCC(c2nc3cc(-c4ccc(-n5cnnn5)cc4F)ccc3o2)CC1 [EXAMPLE-41, 5-[2-fluoro-4-(1H-tetrazol-1-yl)phenyl]-2-[1-(2-methoxyethyl)piperidin-4-yl]benzo[d]oxazole] | –
193 to 196 °C | 48.8% | – | CC(C)C(=O)N1CCC(c2nc3cc(-c4ccc(C(N)=O)c(F)c4)ccc3o2)CC1 [EXAMPLE-43, 2-Fluoro-4-[2-(1-isobutyrylpiperidin-4-yl)benzo[d]oxazol-5-yl]benzamide] | –
178 to 181 °C | 64.8% | – | CC(C)OC(=O)N1CCC(c2nc3ccc(-c4ccc(C(N)=O)c(F)c4)cc3o2)CC1 [EXAMPLE-44, Isopropyl 4-[6-(4-carbamoyl-3-fluorophenyl)benzo[d]oxazol-2-yl]piperidine-1-carboxylate] | EC50 (human GPR119; Table I): 25 to 50 nM
145 to 147 °C | 56.4% | – | CC(C)OC(=O)N1CCC(c2nc3cc(-c4ccc(C(=O)NCCO)c(F)c4)ccc3o2)CC1 [EXAMPLE-45, Isopropyl 4-{5-[3-fluoro-4-(2-hydroxyethylcarbamoyl)phenyl]benzo[d]oxazol-2-yl}piperidine-1-carboxylate] | –
147 to 150 °C | 53% | – | CC(C)NC(=O)c1ccc(-c2ccc3oc(C4CCN(C(=O)OC(C)C)CC4)nc3c2)cc1F [EXAMPLE-46, Isopropyl 4-{5-[3-fluoro-4-(isopropylcarbamoyl)phenyl]benzo[d]oxazol-2-yl}piperidine-1-carboxylate] | –
– | – | 73% | CC(C)(C)OC(=O)N1CCC(c2ccc3nc(-c4ccc(S(C)(=O)=O)cc4F)oc3c2)CC1 [EXAMPLE-67, Tert-butyl 4-{2-[2-fluoro-4-(methylsulfonyl)phenyl]benzo[d]oxazol-6-yl}piperidine-1-carboxylate] | EC50 (human GPR119; Table II): 25 to 50 nM
– | – | 72.7% | CC(C)(C)OC(=O)N1CCC(c2ccc3sc(-c4ccc(S(C)(=O)=O)cc4F)nc3c2)CC1 [EXAMPLE-68, Tert-butyl 4-{2-[2-fluoro-4-(methylsulfonyl)phenyl]benzo[d]thiazol-5-yl}piperidine-1-carboxylate] | –
– | – | 71.8% | CCOC(=O)N1CCC(c2ccc3oc(-c4ccc(S(C)(=O)=O)cc4F)nc3c2)CC1 [EXAMPLE-69, Ethyl 4-{2-[2-fluoro-4-(methylsulfonyl)phenyl]benzo[d]oxazol-5-yl}piperidine-1-carboxylate] | EC50 (human GPR119; Table II): 25 to 50 nM
– | – | 64.7% | CC(C)(C)OC(=O)N1CCC(c2ccc3oc(-c4ccc(C(F)(F)F)cc4)nc3c2)CC1 [EXAMPLE-70, Tert-butyl 4-{2-[4-(trifluoromethyl)phenyl]benzo[d]oxazol-5-yl}piperidine-1-carboxylate] | EC50 (human GPR119; Table II): ≤ 25 nM
– | – | 76.6% | CC(C)OC(=O)N1CCC(c2ccc3nc(-c4ccc(S(C)(=O)=O)cc4F)oc3c2)CC1 [EXAMPLE-71, Isopropyl 4-{2-[2-fluoro-4-(methylsulfonyl)phenyl]benzo[d]oxazol-6-yl}piperidine-1-carboxylate] | EC50 (human GPR119; Table II): ≤ 25 nM
– | – | 81.6% | CCOC(=O)N1CCC(c2ccc3nc(-c4ccc(S(C)(=O)=O)cc4F)oc3c2)CC1 [EXAMPLE-72, Ethyl 4-{2-[2-fluoro-4-(methylsulfonyl)phenyl]benzo[d]oxazol-6-yl}piperidine-1-carboxylate] | EC50 (human GPR119; Table II): ≤ 25 nM
– | – | 46% | CC(C)OC(=O)N1CCC(c2ccc3sc(-c4ccc(S(C)(=O)=O)cc4F)nc3c2)CC1 [EXAMPLE-73] | EC50 (human GPR119; Table II): 500 to 1000 nM
– | – | 14.7% | CS(=O)(=O)c1ccc(-c2nc3cc(C4CCN(C(=O)OCc5ccccc5)CC4)ccc3o2)c(F)c1 [EXAMPLE-74, Benzyl 4-{2-[2-fluoro-4-(methylsulfonyl)phenyl]benzo[d]oxazol-5-yl}piperidine-1-carboxylate] | –
– | – | 57.5% | CC(C)COC(=O)N1CCC(c2ccc3oc(-c4ccc(S(C)(=O)=O)cc4F)nc3c2)CC1 [EXAMPLE-75, Isobutyl 4-{2-[2-fluoro-4-(methylsulfonyl)phenyl]benzo[d]oxazol-5-yl}piperidine-1-carboxylate] | –
– | – | 74.9% | CC(C)OC(=O)N1CCC(c2ccc3nc(-c4ccc(S(C)(=O)=O)cc4F)sc3c2)CC1 [EXAMPLE-76, Isopropyl 4-{2-[2-fluoro-4-(methylsulfonyl)phenyl]benzo[d]thiazol-6-yl}piperidine-1-carboxylate] | EC50 (human GPR119; Table II): 50 to 250 nM
– | – | 80.4% | CC(C)OC(=O)N1CCC(c2ccc3oc(-c4ccc(C(F)(F)F)cc4)nc3c2)CC1 [EXAMPLE-77, Isopropyl 4-{2-[4-(trifluoromethyl)phenyl]benzo[d]oxazol-5-yl}piperidine-1-carboxylate] | EC50 (human GPR119; Table II): 50 to 250 nM
– | – | 59.4% | Cc1ccc(-c2nc3ccc(C4CCN(C(=O)OC(C)C)CC4)cc3o2)cc1 [EXAMPLE-78, Isopropyl 4-(2-p-tolylbenzo[d]oxazol-6-yl)piperidine-1-carboxylate] | –
– | – | 46.2% | CS(=O)(=O)c1ccc(-c2nc3cc(C4=CCN(S(=O)(=O)CCCO)CC4)ccc3o2)c(F)c1 [EXAMPLE-79, 3-{4-[2-(2-fluoro-4-(methylsulfonyl)phenyl)benzo[d]oxazol-5-yl]-5,6-dihydropyridin-1(2H)-ylsulfonyl}propan-1-ol] | –
– | – | 26.4% | CS(=O)(=O)c1ccc(-c2nc3cc(C4CCN(S(=O)(=O)CCCO)CC4)ccc3o2)c(F)c1 [EXAMPLE-80, 3-{4-[2-(2-fluoro-4-(methylsulfonyl)phenyl)benzo[d]oxazol-5-yl]piperidin-1-ylsulfonyl}propan-1-ol] | –
– | – | 57.6% | CC(C)c1noc(C2CCN(c3ccc4oc(-c5ccc(S(C)(=O)=O)cc5F)nc4c3)CC2)n1 [EXAMPLE-83, 2-[2-fluoro-4-(methylsulfonyl)phenyl]-5-[4-(3-isopropyl-1,2,4-oxadiazol-5-yl)piperidin-1-yl]benzo[d]oxazole] | –
– | – | 47.3% | CC(C)(C)OC(=O)N1CCC(c2cnc3oc(-c4ccc(C(F)(F)F)cc4)nc3c2)CC1 [EXAMPLE-87, Tert-butyl 4-{2-[4-(trifluoromethyl)phenyl]oxazolo[5,4-b]pyridin-6-yl}piperidine-1-carboxylate] | –
